The NIST ThermoML archive (doi:10.1016/j.jct.2005.07.011)

Assay: excess molar enthalpy (molar enthalpy of mixing); xn = mol fraction of the nth substance listed
Conditions: Liquid, Flow calorimetry

COC(=O)OC [dimethyl carbonate] + CCCCO
Conditions | excess molar enthalpy [kcal/mol]
298.15 K, 1000 kPa, x1 = 0.05 | 0.127
298.15 K, 1000 kPa, x1 = 0.1 | 0.232
298.15 K, 1000 kPa, x1 = 0.15 | 0.317
298.15 K, 1000 kPa, x1 = 0.2 | 0.383
298.15 K, 1000 kPa, x1 = 0.25 | 0.435
298.15 K, 1000 kPa, x1 = 0.3 | 0.4733
298.15 K, 1000 kPa, x1 = 0.35 | 0.5011
298.15 K, 1000 kPa, x1 = 0.4 | 0.5163
298.15 K, 1000 kPa, x1 = 0.45 | 0.5253
298.15 K, 1000 kPa, x1 = 0.5 | 0.5258
298.15 K, 1000 kPa, x1 = 0.55 | 0.5155
298.15 K, 1000 kPa, x1 = 0.6 | 0.4945
298.15 K, 1000 kPa, x1 = 0.65 | 0.4683
298.15 K, 1000 kPa, x1 = 0.7 | 0.4353
298.15 K, 1000 kPa, x1 = 0.75 | 0.3916
298.15 K, 1000 kPa, x1 = 0.8 | 0.3364
298.15 K, 1000 kPa, x1 = 0.85 | 0.2695
298.15 K, 1000 kPa, x1 = 0.9 | 0.1907
298.15 K, 1000 kPa, x1 = 0.95 | 0.09904
313.15 K, 100 kPa, x1 = 0.049 | 0.125
313.15 K, 100 kPa, x1 = 0.099 | 0.235
313.15 K, 100 kPa, x1 = 0.149 | 0.329
313.15 K, 100 kPa, x1 = 0.199 | 0.404
313.15 K, 100 kPa, x1 = 0.25 | 0.4635
313.15 K, 100 kPa, x1 = 0.299 | 0.5061
313.15 K, 100 kPa, x1 = 0.351 | 0.5395
313.15 K, 100 kPa, x1 = 0.4 | 0.5598
313.15 K, 100 kPa, x1 = 0.449 | 0.5716
313.15 K, 100 kPa, x1 = 0.499 | 0.5732
313.15 K, 100 kPa, x1 = 0.549 | 0.5667
313.15 K, 100 kPa, x1 = 0.6 | 0.5459
313.15 K, 100 kPa, x1 = 0.651 | 0.5157
313.15 K, 100 kPa, x1 = 0.699 | 0.4762
313.15 K, 100 kPa, x1 = 0.751 | 0.427
313.15 K, 100 kPa, x1 = 0.8 | 0.368
313.15 K, 100 kPa, x1 = 0.85 | 0.299
313.15 K, 100 kPa, x1 = 0.899 | 0.204
313.15 K, 100 kPa, x1 = 0.949 | 0.108
313.15 K, 1000 kPa, x1 = 0.049 | 0.127
313.15 K, 1000 kPa, x1 = 0.099 | 0.238
313.15 K, 1000 kPa, x1 = 0.149 | 0.331
313.15 K, 1000 kPa, x1 = 0.199 | 0.406
313.15 K, 1000 kPa, x1 = 0.25 | 0.4659
313.15 K, 1000 kPa, x1 = 0.299 | 0.5082
313.15 K, 1000 kPa, x1 = 0.35 | 0.5426
313.15 K, 1000 kPa, x1 = 0.399 | 0.5625
313.15 K, 1000 kPa, x1 = 0.449 | 0.572
313.15 K, 1000 kPa, x1 = 0.499 | 0.5728
313.15 K, 1000 kPa, x1 = 0.549 | 0.5639
313.15 K, 1000 kPa, x1 = 0.6 | 0.5428
313.15 K, 1000 kPa, x1 = 0.651 | 0.5125
313.15 K, 1000 kPa, x1 = 0.699 | 0.4734
313.15 K, 1000 kPa, x1 = 0.751 | 0.4239
313.15 K, 1000 kPa, x1 = 0.8 | 0.368
313.15 K, 1000 kPa, x1 = 0.849 | 0.296
313.15 K, 1000 kPa, x1 = 0.899 | 0.206
313.15 K, 1000 kPa, x1 = 0.949 | 0.105
313.15 K, 10000 kPa, x1 = 0.049 | 0.124
313.15 K, 10000 kPa, x1 = 0.101 | 0.24
313.15 K, 10000 kPa, x1 = 0.151 | 0.332
313.15 K, 10000 kPa, x1 = 0.202 | 0.405
313.15 K, 10000 kPa, x1 = 0.249 | 0.4604
313.15 K, 10000 kPa, x1 = 0.3 | 0.5061
313.15 K, 10000 kPa, x1 = 0.349 | 0.5364
313.15 K, 10000 kPa, x1 = 0.401 | 0.5586
313.15 K, 10000 kPa, x1 = 0.451 | 0.5694
313.15 K, 10000 kPa, x1 = 0.501 | 0.5711
313.15 K, 10000 kPa, x1 = 0.551 | 0.5597
313.15 K, 10000 kPa, x1 = 0.602 | 0.5408
313.15 K, 10000 kPa, x1 = 0.65 | 0.513
313.15 K, 10000 kPa, x1 = 0.75 | 0.4247
313.15 K, 10000 kPa, x1 = 0.799 | 0.368
313.15 K, 10000 kPa, x1 = 0.849 | 0.293
313.15 K, 10000 kPa, x1 = 0.899 | 0.21
313.15 K, 10000 kPa, x1 = 0.949 | 0.105
328.15 K, 1000 kPa, x1 = 0.05 | 0.129
328.15 K, 1000 kPa, x1 = 0.1 | 0.243
328.15 K, 1000 kPa, x1 = 0.15 | 0.341
328.15 K, 1000 kPa, x1 = 0.2 | 0.418
328.15 K, 1000 kPa, x1 = 0.25 | 0.4826
328.15 K, 1000 kPa, x1 = 0.3 | 0.531
328.15 K, 1000 kPa, x1 = 0.35 | 0.5685
328.15 K, 1000 kPa, x1 = 0.4 | 0.5957
328.15 K, 1000 kPa, x1 = 0.45 | 0.6082
328.15 K, 1000 kPa, x1 = 0.5 | 0.6094
328.15 K, 1000 kPa, x1 = 0.55 | 0.602
328.15 K, 1000 kPa, x1 = 0.6 | 0.5832
328.15 K, 1000 kPa, x1 = 0.65 | 0.5542
328.15 K, 1000 kPa, x1 = 0.7 | 0.513
328.15 K, 1000 kPa, x1 = 0.75 | 0.4578
328.15 K, 1000 kPa, x1 = 0.8 | 0.3918
328.15 K, 1000 kPa, x1 = 0.85 | 0.3191
328.15 K, 1000 kPa, x1 = 0.9 | 0.2231
328.15 K, 1000 kPa, x1 = 0.95 | 0.114
